Measurements from patent US11040952B2, “Phthalazinone compound, method for preparation thereof, pharmaceutical composition thereof, and use thereof” (SHANGHAI INSTITUTE OF MATERIA MEDICA, CHINESE ACADEMY OF …, priority 2017, dated 2021).

Columns and labels:
[1] = MTT assay for cytotoxicity; type: cell-based, Human; details: human, HepG2.2.15 cells, half (50%) lethal concentration
Procedure: (§1) Human hepatoblastoma cell line HepG2.2.15 stably transfected with full-length HBV (provided by Shanghai Institute of Materia Medica, Chinese Academy of Sciences)
(§2) HepG2.2.15 cells were cultured and passaged according to conventional methods. DMEM containing 10% (v/v) bovine serum and the selective antibiotic G418 was used as a medium, the cells were cultured in an incubator at 37° C. under 5% CO2 for 8 days (the medium was exchanged on the 4th day).
(§3) The test compounds were formulated with DMSO into a 40 mM stock solution, which was then prepared into a solution at the defined highest concentration using a DMEM medium containing 10% Hyclone™ Fetal Bovine Serum, followed by diluting the same; the positive drug was lamivudine, which was also prepared into a solution at the defined concentration with the DMEM medium containing 10% Hyclone™ Fetal Bovine Serum.
HepG2.2.15 cells were seeded at 5×10^3 cells/well in a 96-well plate, and cultured for eight days in the presence of the compounds according to the above method, and then 200 μl of the supernatant was taken out, followed by addition of the MTT solution. After 4 hours of culture, a lysate was added. After 12 hours of culture, the OD570 was measured on a microplate reader. By comparing with the absorbance of the control well, the percentage of viable cells was calculated, and CC50, the concentration required for the reduction of cell viability by 50%, was calculated.

HBV = HBV DNA content in the supernatant of cell culture (real-time PCR); type: cell-based, hepatitis B virus (HBV); details: Hepatitis B virus, HepG2.2.15, 192 h, inhibition of HBV DNA replication, HepG2.2.15 supernatant, 8 days
Procedure: as §1, §2, §3
HepG2.2.15 cells were treated with compounds at different concentrations for 8 days (the medium was exchanged on the 4th day), and the supernatant was aspirated, and the HBV DNA contained in the mature virus particles in the supernatant was quantitated by using a real-time PCR method.
1) The supernatant DNA from a 96-well plate, 200 μl/well, was collected, wherein the contents in the duplicate wells were collected into a same EP tube, and centrifuged at 4000 rcf for 5 min, and the supernatant was collected;
2) 200 μl of the supernatant was added into a 1.5 ml EP tube, added with 20 μl of proteinase K and 200 μl of Buffer AL (Qiagen, DNeasy® Blood & Tissue Kit), vortexed to be mixed thoroughly, and incubated at 56° C. for 10 min;
3) 200 μl of ethanol was added and vortexed to be mixed thoroughly;
4) all the liquid obtained from step 3) was added into a DNeasy Mini spin column (Qiagen, DNeasy® Blood & Tissue Kit) placed in a 2 ml waste liquid collection tube, and centrifuged at 6000 rcf for 1 min, and the supernatant was discarded;
5) the DNeasy Mini spin column was placed in a new 2 ml waste liquid collection tube, added with 500 μl of Buffer AW1 (Qiagen, DNeasy® Blood & Tissue Kit), and centrifuged at 6000 rcf for 1 min, and the supernatant was discarded;
6) the DNeasy Mini spin column was placed in a new 2 ml waste liquid collection tube, added with 500 μl of Buffer AW2, (Qiagen, DNeasy® Blood & Tissue Kit), and centrifuged at 20000 rcf for 3 min, and the supernatant was discarded;
7) the DNeasy Mini spin column was placed in anew 1.5 ml EP tube, 50 μl of Buffer AE (Qiagen, DNeasy® Blood & Tissue Kit) was pipetted and directly applied onto the membrane of the DNeasy Mini spin column, which was then left at room temperature for 5 min, and centrifuged at 6000 rcf for 1 min to elute the DNA from the membrane, the DNeasy Mini spin column was discarded, and the DNA sample was collected and stored at −20° C.
1) Standard curve: 1e^7-1e^4 IU/ml, the sample amount was 1 μl, a blank well was set so as to check whether the reaction system is polluted or not;
2) 1 μl of a DNA sample was added in sequence;
3) Addition of enzyme and reaction buffer: two tubes of the reaction solution were first added into the enzyme, mixed well and centrifuged slightly, placed on ice, added with the sample, followed by addition of 19 μl of the enzyme reaction solution, wherein, during the addition, the DNA sample should be sure of not being touched to cause contamination;
4) the sample was sealed with a sealing film and centrifuged;
Stage 2: 10 cycles • Step 1: 93° C., 45 s • Step 2: 55° C., 1 min Stage 3: 45 cycles • Step 1: 93° C., 30 s • Step 2: 55° C., 45 s
Detection: data were collected after completing the step 2 (55° C., 45 s) of the stage 3.
The experimental data were processed by using the Origin software and IC50 was calculated.

Row | SMILES | CC50 at 8 days [1] | IC50 (HBV)
1 | CS(=O)(=O)CCNc1ccc(-c2nn(Cc3ccc(C#N)cc3)c(=O)c3ccccc23)c(F)n1 [IV-74] | > 100 µM | 0.13 µM
2 | Cc1ncccc1-c1nn(Cc2ccc(C#N)cc2)c(=O)c2ccccc12 [IV-3] | > 100 µM | 5.5 µM
3 | CCOCCCNc1nc(F)c(-c2nn(Cc3ccc(C#N)cc3)c(=O)c3ccccc23)cc1Cl [IV-44] | 54.8 µM | < 0.0977 µM
4 | N#Cc1ccc(Cn2nc(-c3ccc(NC4CC4)nc3F)c3ccccc3c2=O)cc1 [IV-13] | 78.5 µM | 3.8 µM
5 | Cc1ccc(-c2nn(Cc3ccc(Cl)cc3)c(=O)c3ccc(C#N)cc23)c(F)n1 [Compound V-7] | > 100 µM | 0.9 µM
6 | COC(=O)CCNc1ccc(-c2nn(Cc3ccc(C#N)cc3)c(=O)c3ccccc23)c(F)n1 [IV-72] | > 100 µM | 1.72 µM
7 | O=c1c2ccccc2c(-c2cccnc2)nn1Cc1ccc(Cl)cc1 [Compound I-2] | 98.7 µM | 3.1 µM
8 | [2H]C([2H])(NC)c1ccc(-c2nn(Cc3ccc(Cl)cc3)c(=O)c3ccccc23)c(F)n1 [Compound I-38] | 81 µM | 0.8 µM
9 | CCNCCCNc1ccc(-c2nn(Cc3ccc(C#N)cc3)c(=O)c3ccccc23)c(F)n1 [IV-53] | 18.1 µM | 1.07 µM
10 | N#Cc1ccc(Cn2nc(-c3cc(Cl)c(N)nc3F)c3ccccc3c2=O)cc1 [IV-30] | 10.2 µM | < 0.0977 µM
11 | N#Cc1ccc(Cn2nc(-c3cc(Cl)c(NCCOCC(=O)O)nc3F)c3ccccc3c2=O)cc1 [IV-60] | > 100 µM | 0.766 µM
12 | CN(C)CCNc1nc(F)c(-c2nn(Cc3ccc(C#N)cc3)c(=O)c3ccccc23)cc1Cl [IV-38] | 9.76 µM | 0.343 µM
13 | [2H]C([2H])(OC)c1ccc(-c2nn(Cc3ccc(Cl)cc3)c(=O)c3ccccc23)c(F)n1 [Compound I-35] | > 100 µM | 0.3 µM
14 | N#Cc1ccc(Cn2nc(-c3ccc(NCC4CCOCC4)nc3F)c3ccccc3c2=O)cc1 [IV-25] | 54.1 µM | 1.2 µM
15 | N#Cc1ccc(Cn2nc(-c3cccnc3)c3ccccc3c2=O)cc1 [IV-1] | > 100 µM | 5.4 µM
16 | CC(=O)OCc1ccc(-c2nn(Cc3ccc(C#N)cc3)c(=O)c3ccccc23)c(F)n1 [IV-23] | > 100 µM | 4.5 µM
17 | CN(C)Cc1ccc(-c2nn(Cc3ccc(Cl)cc3)c(=O)c3ccccc23)c(F)n1 [Compound I-33] | > 100 µM | 1.3 µM
18 | CC(C)(C)Nc1ccc(-c2nn(Cc3ccc(C#N)cc3)c(=O)c3ccccc23)c(F)n1 [IV-12] | 46.3 µM | 3.7 µM
19 | CCNCCNc1ccc(-c2nn(Cc3ccc(C#N)cc3)c(=O)c3ccccc23)c(F)n1 [IV-47] | 13 µM | 1.72 µM
20 | O=c1c2ccccc2c(-c2ccncc2)nn1Cc1ccc(Cl)cc1 [Compound I-1] | > 100 µM | 7.3 µM
21 | [2H]C([2H])([2H])c1ccc(-c2nn(Cc3ccc(Cl)cc3)c(=O)c3ccccc23)c(F)n1 [Compound I-34] | > 100 µM | 0.2 µM
22 | Cc1ccc(-c2nn(Cc3ccc(Cl)cc3)c(=O)c3cc(C)c(C)cc23)c(F)n1 [Compound V-4] | > 100 µM | 1.3 µM
23 | COCCOCCOCCNc1ccc(-c2nn(Cc3ccc(C#N)cc3)c(=O)c3ccccc23)c(F)n1 [IV-49] | 93.6 µM | 0.166 µM
24 | CCNCCCNc1nc(F)c(-c2nn(Cc3ccc(C#N)cc3)c(=O)c3ccccc23)cc1Cl [IV-54] | 8.55 µM | 0.47 µM

Row | SMILES | CC50 at 8 days [1] | IC50 (HBV)
25 | [2H]C([2H])(c1ccc(C#N)cc1)n1nc(-c2ccc(F)nc2F)c2ccccc2c1=O [IV-18] | > 100 µM | 0.21 µM
26 | N#Cc1ccc(Cn2nc(-c3cc(Cl)c(NCCC(F)(F)F)nc3F)c3ccccc3c2=O)cc1 [IV-84] | 63.5 µM | < 0.098 µM
27 | COCCNc1ccc(-c2nn(Cc3ccc(Cl)cc3)c(=O)c3ccccc23)c(F)n1 [IV-28] | 21.3 µM | 0.191 µM
28 | Cc1ccc(-c2nn(Cc3ccc(Cl)cc3)c(=O)c3cc(C(F)(F)F)c(C(F)(F)F)cc23)c(F)n1 [Compound V-9] | > 100 µM | 1.3 µM
29 | COc1cc2c(-c3ccc(C)nc3F)nn(Cc3ccc(C#N)cc3)c(=O)c2cc1OC [Compound V-12] | > 100 µM | 4.5 µM
30 | Cc1ccc2c(=O)n(Cc3ccc(Cl)cc3)nc(-c3ccc(C)nc3F)c2c1 [Compound V-3] | > 100 µM | 1.5 µM
31 | [2H]C([2H])(c1ccc(Cl)cc1)n1nc(-c2ccc(F)nc2F)c2ccccc2c1=O [Compound I-27] | > 100 µM | 0.3 µM
32 | CC(O)CNc1ccc(-c2nn(Cc3ccc(C#N)cc3)c(=O)c3ccccc23)c(F)n1 (stereo not drawn) [IV-81] | 65.2 µM | 0.334 µM
33 | N#Cc1ncccc1-c1nn(Cc2ccc(Cl)cc2)c(=O)c2ccccc12 [Compound I-8] | > 100 µM | 5.2 µM
34 | CN(C)CCCNc1ccc(-c2nn(Cc3ccc(C#N)cc3)c(=O)c3ccccc23)c(F)n1 [IV-39] | 18.4 µM | 0.684 µM
35 | COCCCNc1nc(F)c(-c2nn(Cc3ccc(C#N)cc3)c(=O)c3ccccc23)cc1Cl [IV-33] | 181 µM | < 0.0977 µM
36 | N#Cc1ccc(Cn2nc(-c3cc(O)cnc3F)c3ccccc3c2=O)cc1 [Compound I-43] | > 100 µM | 1.57 µM
37 | COCCNc1nc(F)c(-c2nn(Cc3ccc(Cl)cc3)c(=O)c3ccccc23)cc1Cl [IV-29] | 26.6 µM | 0.0439 µM
38 | O=c1c2ccccc2c(-c2ccc(C3CC3)nc2F)nn1Cc1ccc(Cl)cc1 [Compound I-31] | > 100 µM | 0.6 µM
39 | CC(C)(C)OC(=O)CCCNc1nc(F)c(-c2nn(Cc3ccc(C#N)cc3)c(=O)c3ccccc23)cc1Cl [IV-51] | 89.9 µM | 0.092 µM
40 | Nc1ccc(-c2nn(Cc3ccc(Cl)cc3)c(=O)c3ccccc23)cn1 [Compound I-5] | 51.8 µM | 1.5 µM
41 | CCOC(=O)CCNc1ccc(-c2nn(Cc3ccc(C#N)cc3)c(=O)c3ccccc23)c(F)n1 [IV-70] | > 100 µM | 3.32 µM
42 | CS(=O)(=O)CCNc1nc(F)c(-c2nn(Cc3ccc(C#N)cc3)c(=O)c3ccccc23)cc1Cl [IV-75] | > 100 µM | 0.0366 µM
43 | Cc1ncccc1-c1nn(Cc2ccc(Cl)cc2)c(=O)c2ccccc12 [Compound I-7] | 48.9 µM | 3.8 µM
44 | N#Cc1ccc(Cn2nc(-c3cccnc3C#N)c3ccccc3c2=O)cc1 [IV-4] | > 100 µM | 3.3 µM
45 | CCOC(=O)CNc1ccc(-c2nn(Cc3ccc(C#N)cc3)c(=O)c3ccccc23)c(F)n1 [IV-34] | > 100 µM | 15.7 µM
46 | CC(C)(C)OC(=O)CCNc1nc(F)c(-c2nn(Cc3ccc(C#N)cc3)c(=O)c3ccccc23)cc1Cl [IV-62] | > 100 µM | 0.445 µM
47 | CN(C)CCNc1ccc(-c2nn(Cc3ccc(Cl)cc3)c(=O)c3ccccc23)c(F)n1 [Compound I-21] | > 100 µM | 1.6 µM
48 | [2H]C([2H])(c1ccc(-c2nn(Cc3ccc(Cl)cc3)c(=O)c3ccccc23)c(F)n1)N(C)C [Compound I-37] | 95 µM | 2.7 µM
